Data: ChEMBL document CHEMBL3862012, “Methylene versus carbonyl bridge in the structure of new tubulin polymerization inhibitors with tricyclic A-rings” (Bioorg Med Chem, 2016)

Key:
Assay type in all cases: functional
[1] = Cytotoxicity against human SNB19 cells assessed as growth inhibition at 10 uM after 48 hrs by SRB assay relative to control; details: SNB-19, 48 h, read-out: GI
[2] = Cytotoxicity against human UACC257 cells assessed as growth inhibition at 10 uM after 48 hrs by SRB assay relative to control; details: UACC-257, 48 h, read-out: GI
[3] = Cytotoxicity against human SW620 cells assessed as growth inhibition at 10 uM after 48 hrs by SRB assay relative to control; details: SW-620, 48 h, read-out: GI
[4] = Cytotoxicity against human RXF393 cells assessed as growth inhibition at 10 uM after 48 hrs by SRB assay relative to control; details: RXF 393, 48 h, read-out: GI
[5] = Cytotoxicity against human IGROV1 cells assessed as growth inhibition at 10 uM after 48 hrs by SRB assay relative to control; details: IGROV-1, 48 h, read-out: GI
[6] = Cytotoxicity against human KM12 cells assessed as growth inhibition at 10 uM after 48 hrs by SRB assay relative to control; details: KM12, 48 h, read-out: GI
[7] = Cytotoxicity against human SF539 cells assessed as growth inhibition at 10 uM after 48 hrs by SRB assay relative to control; details: SF-539, 48 h, read-out: GI
[8] = Cytotoxicity against human LOXIMVI cells assessed as growth inhibition at 10 uM after 48 hrs by SRB assay relative to control; details: LOX IMVI, read-out: GI
[9] = Cytotoxicity against human ACHN cells assessed as growth inhibition at 10 uM after 48 hrs by SRB assay relative to control; details: read-out: GI
[10] = Cytotoxicity against human COLO205 cells assessed as growth inhibition at 10 uM after 48 hrs by SRB assay relative to control; details: COLO 205, 48 h, read-out: GI
[11] = Cytotoxicity against human MCF7 cells assessed as growth inhibition at 10 uM after 48 hrs by SRB assay relative to control; details: MCF7, 48 h, read-out: GI
[12] = Cytotoxicity against human MDA-MB-435 cells assessed as growth inhibition at 10 uM after 48 hrs by SRB assay relative to control; details: MDA-MB-435, 48 h, read-out: GI
[13] = Cytotoxicity against human NCI-H522 cells assessed as growth inhibition at 10 uM after 48 hrs by SRB assay relative to control; details: NCI-H522, 48 h, read-out: GI
[14] = Cytotoxicity against human DU145 cells assessed as growth inhibition at 10 uM after 48 hrs by SRB assay relative to control; details: DU-145, 48 h, read-out: GI
[15] = Cytotoxicity against human A549 cells assessed as growth inhibition at 10 uM after 48 hrs by SRB assay relative to control; details: A549, 48 h, read-out: GI
[16] = Cytotoxicity against human SKOV3 cells assessed as growth inhibition at 10 uM after 48 hrs by SRB assay relative to control; details: SK-OV-3, 48 h, read-out: GI
[17] = Cytotoxicity against human SK-MEL-2 cells assessed as growth inhibition at 10 uM after 48 hrs by SRB assay relative to control; details: SK-MEL-2, 48 h, read-out: GI
[18] = Cytotoxicity against human TK10 cells assessed as growth inhibition at 10 uM after 48 hrs by SRB assay relative to control; details: TK-10, 48 h, read-out: GI
[19] = Cytotoxicity against human NCI-ADR-RES cells assessed as growth inhibition at 10 uM after 48 hrs by SRB assay relative to control; details: read-out: GI
[20] = Cytotoxicity against human OVCAR4 cells assessed as growth inhibition at 10 uM after 48 hrs by SRB assay relative to control; details: OVCAR-4, 48 h, read-out: GI
[21] = Cytotoxicity against human RPMI8226 cells assessed as growth inhibition at 10 uM after 48 hrs by SRB assay relative to control; details: RPMI-8226, 48 h, read-out: GI
[22] = Cytotoxicity against human NCI-H23 cells assessed as growth inhibition at 10 uM after 48 hrs by SRB assay relative to control; details: NCI-H23, 48 h, read-out: GI
[23] = Cytotoxicity against human CCRF-CEM cells assessed as growth inhibition at 10 uM after 48 hrs by SRB assay relative to control; details: read-out: GI
[24] = Cytotoxicity against human HOP62 cells assessed as growth inhibition at 10 uM after 48 hrs by SRB assay relative to control; details: HOP-62, 48 h, read-out: GI
[25] = Cytotoxicity against human T47D cells assessed as growth inhibition at 10 uM after 48 hrs by SRB assay relative to control; details: read-out: GI
[26] = Cytotoxicity against human HCT116 cells assessed as growth inhibition at 10 uM after 48 hrs by SRB assay relative to control; details: HCT-116, 48 h, read-out: GI
[27] = Cytotoxicity against human BT549 cells assessed as growth inhibition at 10 uM after 48 hrs by SRB assay relative to control; details: BT-549, 48 h, read-out: GI
[28] = Cytotoxicity against human PC3 cells assessed as growth inhibition at 10 uM after 48 hrs by SRB assay relative to control; details: PC-3, 48 h, read-out: GI
[29] = Cytotoxicity against human SNB75 cells assessed as growth inhibition at 10 uM after 48 hrs by SRB assay relative to control; details: SNB-75, 48 h, read-out: GI
[30] = Cytotoxicity against human SR cells assessed as growth inhibition at 10 uM after 48 hrs by SRB assay relative to control; details: read-out: GI
[31] = Cytotoxicity against human OVCAR3 cells assessed as growth inhibition at 10 uM after 48 hrs by SRB assay relative to control; details: OVCAR-3, 48 h, read-out: GI
[32] = Cytotoxicity against human HL-60(TB) cells assessed as growth inhibition at 10 uM after 48 hrs by SRB assay relative to control; details: HL-60, 48 h, read-out: GI
[33] = Cytotoxicity against human MDA-MB-231 cells assessed as growth inhibition at 10 uM after 48 hrs by SRB assay relative to control; details: MDA-MB-231, 48 h, read-out: GI
[34] = Cytotoxicity against human M14 cells assessed as growth inhibition at 10 uM after 48 hrs by SRB assay relative to control; details: M14, 48 h, read-out: GI
[35] = Cytotoxicity against human MOLT4 cells assessed as growth inhibition at 10 uM after 48 hrs by SRB assay relative to control; details: MOLT-4, 48 h, read-out: GI
[36] = Cytotoxicity against human HCT15 cells assessed as growth inhibition at 10 uM after 48 hrs by SRB assay relative to control; details: HCT-15, 48 h, read-out: GI
[37] = Cytotoxicity against human U251 cells assessed as growth inhibition at 10 uM after 48 hrs by SRB assay relative to control; details: U-251, 48 h, read-out: GI

Row | Compound | inhibition of growth at 10 µM [1] [%] | inhibition of growth at 10 µM [2] [%] | inhibition of growth at 10 µM [3] [%] | inhibition of growth at 10 µM [4] [%] | inhibition of growth at 10 µM [5] [%] | inhibition of growth at 10 µM [6] [%] | inhibition of growth at 10 µM [7] [%] | inhibition of growth at 10 µM [8] [%] | inhibition of growth at 10 µM [9] [%] | inhibition of growth at 10 µM [10] [%] | inhibition of growth at 10 µM [11] [%] | inhibition of growth at 10 µM [12] [%] | inhibition of growth at 10 µM [13] [%] | inhibition of growth at 10 µM [14] [%] | inhibition of growth at 10 µM [15] [%] | inhibition of growth at 10 µM [16] [%] | inhibition of growth at 10 µM [17] [%] | inhibition of growth at 10 µM [18] [%] | inhibition of growth at 10 µM [19] [%] | inhibition of growth at 10 µM [20] [%] | also measured
1 | COc1ccc(CN2c3ccccc3Oc3ccccc32)cc1F | 32 | 41 | 66 | 16 | 48 | 59 | 35 | 41 | 19 | 58 | 57 | 100 | 100 | 4 | 56 | 53 | 90 | 26 | 59 | 28 | inhibition of growth at 10 µM [21]: 39%; inhibition of growth at 10 µM [22]: 28%; inhibition of growth at 10 µM [23]: 33%; inhibition of growth at 10 µM [24]: 48%; inhibition of growth at 10 µM [25]: 42%; inhibition of growth at 10 µM [26]: 69%; inhibition of growth at 10 µM [27]: 30%; inhibition of growth at 10 µM [28]: 35%; inhibition of growth at 10 µM [29]: 52%; inhibition of growth at 10 µM [30]: 73%; inhibition of growth at 10 µM [31]: 57%; inhibition of growth at 10 µM [32]: 46%; inhibition of growth at 10 µM [33]: 47%; inhibition of growth at 10 µM [34]: 66%; inhibition of growth at 10 µM [35]: 58%; inhibition of growth at 10 µM [36]: 53%; inhibition of growth at 10 µM [37]: 60%
2 | COc1ccc(CN2c3ccccc3Sc3ccccc32)cc1O | 67 | 48 | 69 | 100 | 70 | 82 | 100 | 57 | 58 | 100 | 74 | 99 | 100 | 82 | 86 | 71 | 91 | 42 | 82 | 54 | inhibition of growth at 10 µM [21]: 76%; inhibition of growth at 10 µM [22]: 63%; inhibition of growth at 10 µM [23]: 92%; inhibition of growth at 10 µM [24]: 64%; inhibition of growth at 10 µM [25]: 73%; inhibition of growth at 10 µM [26]: 87%; inhibition of growth at 10 µM [27]: 45%; inhibition of growth at 10 µM [28]: 74%; inhibition of growth at 10 µM [29]: 73%; inhibition of growth at 10 µM [30]: 84%; inhibition of growth at 10 µM [31]: 93%; inhibition of growth at 10 µM [32]: 79%; inhibition of growth at 10 µM [33]: 59%; inhibition of growth at 10 µM [34]: 86%; inhibition of growth at 10 µM [35]: 82%; inhibition of growth at 10 µM [36]: 67%; inhibition of growth at 10 µM [37]: 82%
3 | COc1ccc(CN2c3ccccc3CCc3ccccc32)cc1F | 61 | 38 | 79 | 82 | 48 | 83 | 100 | 50 | 64 | 100 | 80 | 100 | 100 | 91 | 79 | 62 | 73 | 37 | 89 | 58 | inhibition of growth at 10 µM [21]: 91%; inhibition of growth at 10 µM [22]: 61%; inhibition of growth at 10 µM [23]: 96%; inhibition of growth at 10 µM [24]: 63%; inhibition of growth at 10 µM [25]: 53%; inhibition of growth at 10 µM [26]: 98%; inhibition of growth at 10 µM [27]: 46%; inhibition of growth at 10 µM [28]: 76%; inhibition of growth at 10 µM [29]: 77%; inhibition of growth at 10 µM [30]: 88%; inhibition of growth at 10 µM [31]: 100%; inhibition of growth at 10 µM [32]: 100%; inhibition of growth at 10 µM [33]: 83%; inhibition of growth at 10 µM [34]: 100%; inhibition of growth at 10 µM [35]: 84%; inhibition of growth at 10 µM [36]: 75%; inhibition of growth at 10 µM [37]: 79%
